Measured values published in patent US8592435B2, “Nitrogen-containing six-membered aromatic ring derivatives and pharmaceutical products containing the same” (Daiichi Sankyo Company, Limited, priority 2007, dated 2013).
Structures can show the parent of a compound that is named as a salt.

How the values were obtained:
[1] = tested on: hippocampal neurons; test: Test Example 1: ability to promote axonal outgrowth; type: cell-based, Wistar rats; conditions: Hippocampal neuron, 216 h, % of control, rat hippocampal neurons, day 9, read-out: Promotion of axonal outgrowth (%); for activity at 0.3 µM: Compound Conc. = 0.3 μM; for activity at 3 µM: Compound Conc. = 3 μM
Method: According to the method of M. P. Mattson [M. P. Mattson, Brain Res. Rev., 13, 179, (1988)], the hippocampal region was isolated from 18-day embryos of female Wistar rats and the neurons were dispersed using the papain dissociation system. Hippocampal neuron were suspended in 5% Nu-serum+B27 supplement+Neurobasal medium at 5×10^4 cells/well/2 mL. 2 mL of the cell suspension were inoculated on a poly-D-lysine-coated 36φ dish and the neuron were incubated at 37° C. in a 5% CO2 incubator.
On day 3 of the incubation period, 1 mL of the culture medium was replaced with 1 mL of 5% Nu-serum+B27 supplement+Neurobasal medium containing 2 mM AraC. Each test compound was added to the culture on day 3 and day 7 of the incubation period. On day 9, cells were fixed in a 4% paraformaldehyde solution. The nerve axons of the fixed cells were stained with the Rabbit anti-growth-associated protein-43 polyclonal antibody and the stained cells were quantified using Kurabo neuron outgrowth-quantication software.
The ability (%) of each test compound to promote axonal outgrowth was calculated from the following equation: The ability to promote axonal outgrowth (%)=[(measurement with a compound of interest)/(measurement of control)]×100
Example Compounds shown in Table 25 were used as test compounds and were each added at concentrations of 3 μM and 0.3 μM.
Since bFGF gives a measurement of about 120 in this test, 120 is used as the threshold to determine whether a given compound has the ability to promote axonal outgrowth

[2] = tested on: mixture of human vascular endothelial cells and fibroblasts; test: Test Example 2: ability to promote angiogenesis (angiogenesis test kit KZ-1000); type: cell-based; conditions: Homo sapiens, 216 h, lumen length, % of control, day 9, read-out: Promotion of angiogenesis (%); for activity at 0.3 µM: Compound Conc. = 0.3 μM; for activity at 3 µM: Compound Conc. = 3 μM
Method: Using an angiogenesis test kit containing a mixture of human vascular endothelial cells and fibroblasts [KZ-1000; Kurabo], the ability of test compounds to promote angiogenesis was evaluated. Each test compound was added on days 1, 4, and 7 of the incubation period. On day 9, cells were immunostained with CD31 and photographed. Control cells were cultured under the same conditions, only without the addition of a test compound, and photographed.
The lumen length of the blood vessel was quantified from the obtained images using an angiogenesis-quantification software. The ability (%) of each test compound to promote angiogenesis was calculated from the following equation: The ability to promote angiogenesis (%)=[(measurement with a compound of interest)/(measurement of control)]×100
Example Compounds shown in Table 26 were used as test compounds.
Since bFGF gives a measurement of about 120 in this test, 120 is used as the threshold to determine whether a given compound has the ability to promote angiogenesis.

| Structure (SMILES) | activity at 0.3 µM [1] [%] | activity at 3 µM [1] [%] | activity at 0.3 µM [2] [%] | activity at 3 µM [2] [%] |
| --- | --- | --- | --- | --- |
| CC(C)c1nc(OCC(=O)N(C)C2CCN(Cc3ccccc3)CC2)nc(C(C)C)c1N [Compound 104, 2-(5-amino-4,6-diisopropylpyrimidine-2-yloxy)-N-(1-benzylpiperidine-4-yl)-N-methylacetamide] | 134 | – | – | – |
| CN(C(=O)COc1cncc(Cl)c1)C1CCN(Cc2ccccc2)CC1 [Compound 125, N-(1-benzylpiperidine-4-yl)-2-(5-chloropyridine-3-yloxy)-N-methylacetamide hydrochloride] | 173 | – | – | – |
| Cc1nc(OC(C)C(=O)N(C)C2CCN(CC3CC3)CC2)nc(C)c1N (stereo not shown) [Compound 98, 2-(5-amino-4,6-dimethylpyrimidine-2-yloxy)-N-(1-(cyclopropylmethyl)piperidine-4-yl)-N-methylpropanamide] | – | 130 | 129 | – |
| Cc1nc(=O)n(CC(=O)N(C)C2CCN(Cc3ccccc3)CC2)c(C)c1N [Compound 97, 2-(5-amino-4,6-dimethyl-2-oxopyrimidine-1(2H)-yl)-N-(1-benzylpiperidine-4-yl)-N-methylacetamide] | – | 127 | – | 134 |
| COc1cccc(CN2CCC(N(C)C(=O)COc3nc(C)c(N)c(C)n3)CC2)c1 [Compound 88, 2-(5-amino-4,6-dimethylpyrimidine-2-yloxy)-N-(1-(3-methoxybenzyl)piperidine-4-yl)-N-methylacetamide hydrochloride] | 142 | – | – | 122 |
| CNc1c(C)nc(OC(C)C(=O)N(C)C2CCN(Cc3ccccc3)CC2)nc1C (stereo not shown) [Compound 100, N-(1-benzylpiperidine-4-yl)-2-(4,6-dimethyl-5-(methylamino)pyrimidine-2-yloxy)-N-methylpropanamide] | – | 128 | 116 | – |
| Cc1ccccc1CN1CCC(N(C)C(=O)COc2nc(C)c(N)c(C)n2)CC1 [Compound 81, 2-(5-amino-4,6-dimethylpyrimidine-2-yloxy)-N-methyl-N-(1-(2-methylbenzyl)piperidine-4-yl)acetamide] | – | 115 | – | 126 |
| Cc1nc(NCC(=O)N(C)C2CCN(Cc3ccccc3)CC2)nc(C)c1N [Compound 63, 2-(5-amino-4,6-dimethylpyrimidine-2-ylamino)-N-(1-benzylpiperidine-4-yl)-N-methylacetamide] | – | 186 | – | – |
| Cc1nc(OCC(=O)N(C)C2CCN(Cc3ccc(C(F)(F)F)cc3)CC2)nc(C)c1N [Compound 69, 2-(5-amino-4,6-dimethylpyrimidine-2-yloxy)-N-methyl-N-(1-(4-(trifluoromethyl)benzyl)piperidine-4-yl)acetamide] | 172 | – | 161 | – |
| Cc1nc(OCC(=O)N(C)C2CCN(CCc3ccccc3)CC2)nc(C)c1N [Compound 75, 2-(5-amino-4,6-dimethylpyrimidine-2-yloxy)-N-methyl-N-(1-phenetylpiperidine-4-yl)acetamide] | – | 125 | – | 150 |
| Cc1nc(N)nc(C)c1OCC(=O)N(C)C1CCN(Cc2ccccc2)CC1 [Compound 113, 2-(2-amino-4,6-dimethylpyrimidine-5-yloxy)-N-(1-benzylpiperidine-4-yl)-N-methylacetamide] | – | 144 | – | – |
| Cc1cnc(Cl)nc1OC(C)(C)C(=O)N(C)C1CCN(Cc2ccccc2)CC1 [Compound 112, N-(1-benzylpiperidine-4-yl)-2-(2-chloro-5-methylpyrimidine-4-yloxy)-N,2-dimethylpropanamide maleate] | – | 126 | – | – |
| CN(C(=O)COc1cncc(Cl)c1)C1CCN(CC2CC2)CC1 [Compound 126, 2-(5-chloropyridine-3-yloxy)-N-(1-(cyclopropylmethyl)piperidine-4-yl)-N-methylacetamide hydrochloride] | – | 167 | – | – |
| CN(C(=O)COc1nccnc1Cl)C1CCN(Cc2ccccc2)CC1 [Compound 128, N-(1-benzylpiperidine-4-yl)-2-(3-chloropyrazine-2-yloxy)-N-methylacetamide hydrochloride] | – | 156 | 115 | – |
| Cc1nc(OCC(=O)N(C)C2CCN(C(=O)C3CCCCC3)CC2)nc(C)c1N [Compound 76, 2-(5-amino-4,6-dimethylpyrimidine-2-yloxy)-N-(1-(cyclohexanecarbonyl)piperidine-4-yl)-N-methylacetamide hydrochloride] | – | 123 | – | 149 |
| Cc1nc(OCC(=O)N(C)C2CCN(C(=O)N3CCCCC3)CC2)nc(C)c1N [Compound 80, 2-(5-amino-4,6-dimethylpyrimidine-2-yloxy)-N-methyl-N-(1-(piperidine-1-carbonyl)piperidine-4-yl)acetamide] | – | 129 | 116 | – |
| CC(=O)N1CCC(N(C)C(=O)COc2nc(C)c(N)c(C)n2)CC1 [Compound 77, N-(1-acetylpiperidine-4-yl)-2-(5-amino-4,6-dimethylpyrimidine-2-yloxy)-N-methylacetamide hydrochloride] | – | 135 | – | 149 |
| COc1cnnc(Cl)c1NCC(=O)N(C)C1CCN(Cc2ccccc2)CC1 [Compound 140, N-(1-benzylpiperidine-4-yl)-2-(3-chloro-5-methoxypyridazine-4-ylamino)-N-methylacetamide] | 128 | – | – | – |
| Cc1cc(C)nc(OCC(=O)N(C)C2CCN(Cc3ccccc3)CC2)n1 [Compound 95, N-(1-benzylpiperidine-4-yl)-2-(4,6-dimethylpyrimidine-2-yloxy)-N-methylacetamide hydrochloride] | – | 201 | – | 133 |
| Cc1nc(OCC(=O)N(C)C2CCN(Cc3ccc(C(N)=O)cc3)CC2)nc(C)c1N [Compound 64, 4-((4-(2-(5-amino-4,6-dimethylpyrimidine-2-yloxy)-N-methylacetamide)piperidine-1-yl)methyl)benzamide] | 120 | – | – | 177 |
| O=C(COc1ccc(Cl)nn1)N(C1CC1)C1CCN(Cc2ccccc2)CC1 [Compound 138, N-(1-benzylpiperidine-4-yl)-2-(6-chloropyridazine-3-yloxy)-N-cyclopropylacetamide] | – | 151 | – | – |
| Cc1cc([N+](=O)[O-])cnc1NCC(=O)N(C)C1CCN(Cc2ccccc2)CC1 [Compound 123, N-(1-benzylpiperidine-4-yl)-N-methyl-2-(3-methyl-5-nitropyridine-2-ylamino)acetamide] | – | 131 | – | 132 |
| CN(C(=O)COc1cncc(Cl)n1)C1CCN(Cc2ccccc2)CC1 [Compound 129, N-(1-benzylpiperidine-4-yl)-2-(6-chloropyrazine-2-yloxy)-N-methylacetamide hydrochloride] | – | 147 | – | – |
| Cc1nc(OCC(=O)N(C)C2CCNCC2)nc(C)c1N [Compound 94, 2-(5-amino-4,6-dimethylpyrimidine-2-yloxy)-N-methyl-N-(piperidine-4-yl)acetamide] | – | 122 | – | – |
| Cc1nc(OCC(=O)N(C)C2CCN(c3ccccc3)CC2)nc(C)c1N [Compound 82, 2-(5-amino-4,6-dimethylpyrimidine-2-yloxy)-N-methyl-N-(1-phenylpiperidine-4-yl)acetamide] | – | 154 | – | 130 |
| CN(C(=O)CNc1c(Cl)cnnc1Cl)C1CCN(Cc2ccccc2)CC1 [Compound 139, N-(1-benzylpiperidine-4-yl)-2-(3,5-dichloropyridazine-4-ylamino)-N-methylacetamide] | – | 143 | – | – |
| Cc1nc(OCC(=O)N(C)C2CCN(Cc3ccc(Cl)cc3)CC2)nc(C)c1N [Compound 72, 2-(5-amino-4,6-dimethylpyrimidine-2-yloxy)-N-(1-(4-chlorobenzyl)piperidine-4-yl)-N-methylacetamide] | – | 141 | – | 142 |
| Cc1nc(OCC(=O)N(C)C2CCN(S(=O)(=O)c3ccccc3)CC2)nc(C)c1N [Compound 78, 2-(5-amino-4,6-dimethylpyrimidine-2-yloxy)-N-methyl-N-(1-(phenylsulfonyl)piperidine-4-yl)acetamide] | – | 130 | – | 144 |
| Cc1nc(OCC(=O)NC2CCN(CC3CC3)CC2)nc(C)c1N [Compound 101, 2-(5-amino-4,6-dimethylpyrimidine-2-yloxy)-N-(1-(cyclopropylmethyl)piperidine-4-yl)acetamide] | – | 193 | – | – |
